According to the supplement of paper PMC10307832:

What was measured:
Experiment in all cases: relative viability (nuclei count vs DMSO), 5 days (fraction); higher = more cells survive
PC-3 [JPC-3] = test system: PC-3 [JPC-3]
Summary of the method: (§1)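 The day after seeding in 1536-well plates, lung cancer cell lines were treated by pin tool with a single drug, or with a fixed anchor-drug dose together with five library-drug doses (not always all listed) in √10 steps. After 5 days, a combined fix-and-stain solution (final 0.05% Triton X-100, 1% formaldehyde, 1 ug/ml Hoechst) was added. Nuclei counted on 4× images gave relative viability as treated counts over vehicle counts, reported as the median of duplicate plates.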

NCI-H1993 = test system: NCI-H1993
Summary of the method: as §1

NCI-H1793 = test system: NCI-H1793
Summary of the method: as §1

COR-L23 = test system: COR-L23
Summary of the method: as §1

NCI-H2170 = test system: NCI-H2170
Summary of the method: as §1

NCI-H2228 = test system: NCI-H2228
Summary of the method: as §1

NCI-H1792 = test system: NCI-H1792
Summary of the method: as §1

SW 1573 = test system: SW 1573
Summary of the method: as §1

NCI-H2009 = test system: NCI-H2009
Summary of the method: as §1

NCI-H596 = test system: NCI-H596
Summary of the method: as §1

HARA = test system: HARA
Summary of the method: as §1

SW 900 = test system: SW 900
Summary of the method: as §1

EMC-BAC-2 = test system: EMC-BAC-2
Summary of the method: as §1

HOP-62 = test system: HOP-62
Summary of the method: as §1

SK-MES-1 = test system: SK-MES-1
Summary of the method: as §1

SK-LU-1 = test system: SK-LU-1
Summary of the method: as §1

LK-2 = test system: LK-2
Summary of the method: as §1

NCI-H1944 = test system: NCI-H1944
Summary of the method: as §1

NCI-H3122 = test system: NCI-H3122
Summary of the method: as §1

LXF-289 = test system: LXF-289
Summary of the method: as §1

A-427 = test system: A-427
Summary of the method: as §1

`CC1(C)CCC(c2ccc(Cl)cc2)=C(CN2CCN(c3ccc(C(=O)NS(=O)(=O)c4ccc(N[C@H](CCN5CCOCC5)CSc5ccccc5)c(S(=O)(=O)C(F)(F)F)c4)cc3)CC2)C1` [Navitoclax] + Nc1nc2[nH]cc(CCc3ccc(C(=O)N[C@@H](CCC(=O)O)C(=O)O)cc3)c2c(=O)[nH]1 [Pemetrexed] (partner 0.2 µM) was tested, and the relative viability (PC-3 [JPC-3]; first compound 0.005 µM) was 1.12, the relative viability (PC-3 [JPC-3]; first compound 0.01581 µM) was 1.26 and the relative viability (PC-3 [JPC-3]; first compound 0.05 µM) was 0.974. For the same compound, the relative viability (PC-3 [JPC-3]; first compound 0.1581 µM) was 1.02, the relative viability (PC-3 [JPC-3]; first compound 0.5 µM) was 0.754 and the relative viability (NCI-H1993; first compound 0.005 µM) was 0.616. The relative viability (NCI-H1993; first compound 0.01581 µM) was 0.701, the relative viability (NCI-H1993; first compound 0.05 µM) was 0.474 and the relative viability (NCI-H1993; first compound 0.1581 µM) was 0.653. For the same compound, the relative viability (NCI-H1993; first compound 0.5 µM) was 0.677, the relative viability (NCI-H1793; first compound 0.005 µM) was 0.72 and the relative viability (NCI-H1793; first compound 0.01581 µM) was 1.09. For the same compound, the relative viability (NCI-H1793; first compound 0.1581 µM) was 0.828, the relative viability (NCI-H1793; first compound 0.5 µM) was 0.643 and the relative viability (COR-L23; first compound 0.005 µM) was 0.208. It also gave a relative viability (COR-L23; first compound 0.01581 µM) of 0.188, a relative viability (COR-L23; first compound 0.05 µM) of 0.221 and a relative viability (COR-L23; first compound 0.1581 µM) of 0.179. It also gave a relative viability (COR-L23; first compound 0.5 µM) of 0.201, a relative viability (NCI-H2170; first compound 0.005 µM) of 0.292 and a relative viability (NCI-H2170; first compound 0.01581 µM) of 0.272. For the same compound, the relative viability (NCI-H2170; first compound 0.05 µM) was 0.273, the relative viability (NCI-H2170; first compound 0.1581 µM) was 0.266 and the relative viability (NCI-H2170; first compound 0.5 µM) was 0.254. It also gave a relative viability (NCI-H2228; first compound 0.005 µM) of 0.314, a relative viability (NCI-H2228; first compound 0.01581 µM) of 0.306 and a relative viability (NCI-H2228; first compound 0.1581 µM) of 0.336. The relative viability (NCI-H2228; first compound 0.5 µM) was 0.31, the relative viability (NCI-H1792; first compound 0.005 µM) was 0.917 and the relative viability (NCI-H1792; first compound 0.01581 µM) was 0.82. It also gave a relative viability (NCI-H1792; first compound 0.1581 µM) of 0.716, a relative viability (NCI-H1792; first compound 0.5 µM) of 0.738 and a relative viability (SW 1573; first compound 0.005 µM) of 0.925. The relative viability (SW 1573; first compound 0.01581 µM) was 0.773, the relative viability (SW 1573; first compound 0.05 µM) was 0.787 and the relative viability (SW 1573; first compound 0.1581 µM) was 0.751. It also gave a relative viability (SW 1573; first compound 0.5 µM) of 0.801, a relative viability (NCI-H2009; first compound 0.005 µM) of 0.997 and a relative viability (NCI-H2009; first compound 0.01581 µM) of 1.03. The relative viability (NCI-H2009; first compound 0.05 µM) was 1.03, the relative viability (NCI-H2009; first compound 0.1581 µM) was 1.04 and the relative viability (NCI-H2009; first compound 0.5 µM) was 1.01. The relative viability (NCI-H596; first compound 0.005 µM) was 0.418, the relative viability (NCI-H596; first compound 0.01581 µM) was 0.459 and the relative viability (NCI-H596; first compound 0.05 µM) was 0.5. For the same compound, the relative viability (NCI-H596; first compound 0.1581 µM) was 0.439, the relative viability (NCI-H596; first compound 0.5 µM) was 0.39 and the relative viability (HARA; first compound 0.005 µM) was 0.189. It also gave a relative viability (HARA; first compound 0.01581 µM) of 0.232, a relative viability (HARA; first compound 0.05 µM) of 0.255 and a relative viability (HARA; first compound 0.1581 µM) of 0.236. For the same compound, the relative viability (HARA; first compound 0.5 µM) was 0.218, the relative viability (SW 900; first compound 0.005 µM) was 0.471 and the relative viability (SW 900; first compound 0.01581 µM) was 0.476. The relative viability (SW 900; first compound 0.1581 µM) was 0.452, the relative viability (SW 900; first compound 0.5 µM) was 0.441 and the relative viability (EMC-BAC-2; first compound 0.005 µM) was 0.433. For the same compound, the relative viability (EMC-BAC-2; first compound 0.01581 µM) was 0.437, the relative viability (EMC-BAC-2; first compound 0.05 µM) was 0.408 and the relative viability (EMC-BAC-2; first compound 0.1581 µM) was 0.423. It also gave a relative viability (EMC-BAC-2; first compound 0.5 µM) of 0.419, a relative viability (HOP-62; first compound 0.005 µM) of 0.326 and a relative viability (HOP-62; first compound 0.01581 µM) of 0.299. It also gave a relative viability (HOP-62; first compound 0.05 µM) of 0.323, a relative viability (HOP-62; first compound 0.1581 µM) of 0.27 and a relative viability (HOP-62; first compound 0.5 µM) of 0.27. It also gave a relative viability (SK-MES-1; first compound 0.005 µM) of 0.913, a relative viability (SK-MES-1; first compound 0.01581 µM) of 1.05 and a relative viability (SK-MES-1; first compound 0.05 µM) of 1.03. For the same compound, the relative viability (SK-MES-1; first compound 0.1581 µM) was 0.884, the relative viability (SK-MES-1; first compound 0.5 µM) was 0.927 and the relative viability (SK-LU-1; first compound 0.005 µM) was 0.945. It also gave a relative viability (SK-LU-1; first compound 0.01581 µM) of 1.01, a relative viability (SK-LU-1; first compound 0.05 µM) of 0.967 and a relative viability (SK-LU-1; first compound 0.1581 µM) of 0.947. The relative viability (SK-LU-1; first compound 0.5 µM) was 0.819, the relative viability (LK-2; first compound 0.005 µM) was 0.35 and the relative viability (LK-2; first compound 0.01581 µM) was 0.244. It also gave a relative viability (LK-2; first compound 0.05 µM) of 0.281, a relative viability (LK-2; first compound 0.1581 µM) of 0.332 and a relative viability (LK-2; first compound 0.5 µM) of 0.316. The relative viability (NCI-H1944; first compound 0.005 µM) was 0.611, the relative viability (NCI-H1944; first compound 0.01581 µM) was 0.623 and the relative viability (NCI-H1944; first compound 0.1581 µM) was 0.597. The relative viability (NCI-H1944; first compound 0.5 µM) was 0.534, the relative viability (NCI-H3122; first compound 0.005 µM) was 0.207 and the relative viability (NCI-H3122; first compound 0.01581 µM) was 0.176. For the same compound, the relative viability (NCI-H3122; first compound 0.05 µM) was 0.211, the relative viability (NCI-H3122; first compound 0.1581 µM) was 0.183 and the relative viability (NCI-H3122; first compound 0.5 µM) was 0.209. It also gave a relative viability (LXF-289; first compound 0.005 µM) of 0.85, a relative viability (LXF-289; first compound 0.01581 µM) of 0.914 and a relative viability (LXF-289; first compound 0.05 µM) of 0.865. It also gave a relative viability (LXF-289; first compound 0.1581 µM) of 0.926, a relative viability (LXF-289; first compound 0.5 µM) of 0.852 and a relative viability (A-427; first compound 0.005 µM) of 1.01. The relative viability (A-427; first compound 0.01581 µM) was 0.896, the relative viability (A-427; first compound 0.05 µM) was 0.968 and the relative viability (A-427; first compound 0.1581 µM) was 1.14. It also gave a relative viability (A-427; first compound 0.5 µM) of 1.04.
